# Literature values, collected in patent US10926237B2, “Soluble corrosion resistant sol-gel” (THE BOEING COMPANY, priority 2018, dated 2021).
structure (smiles),measurement,value
"Sc1nnc(S)s1 [2,5-Dimercapto-1,3,4-thiadiazole, 2,5-dimercapto-1,3,4-thiadiazole]",water solubility (in words),water soluble
